Experimental data as given in ChEMBL document CHEMBL1157931 (Bioorg Med Chem, 2010).
The source made the active and inactive calls. No cut-off for these calls is given here.

Legend:
[1] = molecular target: T1, 5-hydroxytryptamine receptor 1A (Homo sapiens, UniProt P08908); test: Displacement of [3H]8-OH-DPAT from 5HT1A receptor expressed in HEK293 cells after 2 hrs by liquid scintillation counting; type: cell-based
T1 sequence (P08908 whole entry): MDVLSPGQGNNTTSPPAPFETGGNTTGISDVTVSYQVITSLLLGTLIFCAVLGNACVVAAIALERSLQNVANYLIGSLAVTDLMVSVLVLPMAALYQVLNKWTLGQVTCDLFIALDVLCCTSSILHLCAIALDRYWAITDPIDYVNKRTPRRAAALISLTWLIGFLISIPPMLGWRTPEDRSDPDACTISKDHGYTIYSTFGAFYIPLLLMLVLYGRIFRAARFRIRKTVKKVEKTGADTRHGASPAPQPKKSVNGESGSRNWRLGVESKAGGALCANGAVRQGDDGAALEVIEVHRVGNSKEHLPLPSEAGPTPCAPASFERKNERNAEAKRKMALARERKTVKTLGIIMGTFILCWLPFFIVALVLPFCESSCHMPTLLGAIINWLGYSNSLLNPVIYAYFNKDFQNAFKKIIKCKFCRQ

[2] = molecular target: T2, 5-hydroxytryptamine receptor 1A (Homo sapiens) (UniProt P08908); test: Displacement of [3H]8-OH-DPAT from 5HT1A receptor expressed in HEK293 cells at 25 ug/ml after 2 hrs by liquid scintillation counting; type: cell-based
T2 sequence (whole entry): T1 sequence (P08908 whole entry)

[3] = molecular target: T2, 5-hydroxytryptamine receptor 1A (Homo sapiens); test: Antagonist activity at 5HT1A receptor expressed in HEK293 cells assessed as inhibition of 8-OH-DPAT-induced [S35]GTPgammaS binding by scintillation counting; type: functional, cell-based
[4] = molecular target: T2, 5-hydroxytryptamine receptor 1A (Homo sapiens); test: Antagonist activity at 5HT1A receptor expressed in HEK293 cells assessed as inhibition of serotonin-induced [S35]GTPgammaS binding by scintillation counting; type: functional, cell-based
[5] = molecular target: ATP-dependent translocase ABCB1 (Homo sapiens, UniProt P08183); test: Inhibition of human MDR1 expressed in MDCK cells assessed as fluorescence activity at 30 uM after 1.5 hrs by rhodamine 123 efflux test; type: cell-based
Sequence of ATP-dependent translocase ABCB1 (P08183 whole entry): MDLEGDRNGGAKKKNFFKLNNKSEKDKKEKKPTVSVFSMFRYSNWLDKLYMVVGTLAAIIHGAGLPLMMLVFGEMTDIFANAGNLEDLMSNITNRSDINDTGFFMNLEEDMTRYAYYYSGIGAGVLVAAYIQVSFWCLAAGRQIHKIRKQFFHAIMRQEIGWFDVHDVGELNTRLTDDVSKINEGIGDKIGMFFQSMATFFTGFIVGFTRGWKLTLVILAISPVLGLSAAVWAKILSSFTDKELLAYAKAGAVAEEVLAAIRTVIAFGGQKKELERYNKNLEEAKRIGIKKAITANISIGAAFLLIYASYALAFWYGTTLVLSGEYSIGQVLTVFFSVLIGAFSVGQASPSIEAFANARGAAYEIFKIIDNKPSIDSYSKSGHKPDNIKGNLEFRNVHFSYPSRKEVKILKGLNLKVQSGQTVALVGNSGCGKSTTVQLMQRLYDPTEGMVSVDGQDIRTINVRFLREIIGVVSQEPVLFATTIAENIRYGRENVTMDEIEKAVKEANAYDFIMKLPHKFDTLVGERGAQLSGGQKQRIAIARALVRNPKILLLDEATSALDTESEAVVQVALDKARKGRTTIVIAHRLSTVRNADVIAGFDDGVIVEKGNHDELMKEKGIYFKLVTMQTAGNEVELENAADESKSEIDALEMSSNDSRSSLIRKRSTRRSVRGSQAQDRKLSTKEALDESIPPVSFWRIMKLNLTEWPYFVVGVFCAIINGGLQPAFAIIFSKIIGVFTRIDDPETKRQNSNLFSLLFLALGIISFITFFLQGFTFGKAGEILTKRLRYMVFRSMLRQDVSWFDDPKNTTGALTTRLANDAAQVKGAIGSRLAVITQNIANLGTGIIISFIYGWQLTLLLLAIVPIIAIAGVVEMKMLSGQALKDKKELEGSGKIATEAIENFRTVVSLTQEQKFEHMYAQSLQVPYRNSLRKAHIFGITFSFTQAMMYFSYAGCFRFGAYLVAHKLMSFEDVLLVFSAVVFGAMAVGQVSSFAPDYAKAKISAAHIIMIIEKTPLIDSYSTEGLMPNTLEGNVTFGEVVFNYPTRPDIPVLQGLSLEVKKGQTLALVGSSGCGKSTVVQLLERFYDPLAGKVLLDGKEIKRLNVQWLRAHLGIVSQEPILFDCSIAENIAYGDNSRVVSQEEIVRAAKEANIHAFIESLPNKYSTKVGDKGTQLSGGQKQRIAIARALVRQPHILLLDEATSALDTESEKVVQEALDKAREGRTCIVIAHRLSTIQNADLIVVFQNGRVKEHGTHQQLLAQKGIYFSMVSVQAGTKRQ

[6] = molecular target: T2, 5-hydroxytryptamine receptor 1A (Homo sapiens); test: Agonist activity at 5HT1A receptor expressed in HEK293 cells by [S35]GTPgammaS binding assay relative to 8-OH-DPAT; type: functional, cell-based; set-up: concentration or dose not given beside the values
Caco-2 [7] = test: Cytotoxicity against human Caco-2 cells at 50 ug/ml; type: cell-based
[8] = molecular target: T2, 5-hydroxytryptamine receptor 1A (Homo sapiens); test: Agonist activity at 5HT1A receptor expressed in HEK293 cells at >20 uM by [S35]GTPgammaS binding assay relative to 8-OH-DPAT; type: functional, cell-based
Caco-2 [9] = test: Permeability in human Caco-2 cells assessed as passive diffusion after 3 hrs by HPLC; type: ADME, cell-based; conditions: caco-2, 3 h

SMILES | Ki [1] [µM] | Activity [2] [%] | Activity [3] | Activity [4] | inhibition (INH) [5] | Activity [6] [%] | Activity (Caco-2 [7]) | Activity [8] | permeability (Caco-2 [9]) [%]
CCCCCCC/C(O)=C/C(=O)/C=C/c1ccc(O)c(OC)c1 | 6.54 | > 50 | inactive | inactive | Not Active | – | – | – | –
NCCc1c[nH]c2ccc(O)cc12 | – | – | – | – | – | 100 | – | – | –
CCCCCCCCC/C=C/C(=O)CCc1ccc(O)c(OC)c1 | 5.84 | > 50 | inactive | inactive | Not Active | > 20 | Non-toxic | inactive | 10
CCCCCCC/C=C/C(=O)CCc1ccc(O)c(OC)c1 | 13 | > 50 | inactive | inactive | Not Active | – | – | – | –
CCCCCCC[C@H](O)CC(=O)CCc1ccc(O)c(OC)c1 | 11.7 | > 50 | inactive | inactive | Not Active | – | Non-toxic | – | 10
CCCCC[C@H](O)CC(=O)CCc1ccc(O)c(OC)c1 [GINGEROL] | > 100 | > 50 | inactive | inactive | Not Active | – | Non-toxic | – | 10
CCCCCCCC(O)CCc1ccc(O)c(OC)c1 (configuration not stated) | 9.53 | – | – | – | – | > 10 | – | – | –
CC[C@]1(O)C[C@@H]2CN(CCc3c([nH]c4ccccc34)[C@@](C(=O)OC)(c3cc4c(cc3OC)N(C)[C@H]3[C@@](O)(C(=O)OC)[C@H](OC(C)=O)[C@]5(CC)C=CCN6CC[C@]43[C@@H]65)C2)C1 [VINBLASTINE] | – | – | – | – | Active | – | – | – | –
CCCCCCCCC/C(O)=C/C(=O)/C=C/c1ccc(O)c(OC)c1 | 3.59 | > 50 | inactive | inactive | Not Active | – | – | – | –
CCCCCCCCC[C@H](O)CC(=O)CCc1ccc(O)c(OC)c1 | 3.74 | > 50 | inactive | inactive | Not Active | > 10 | Non-toxic | – | 10
CCCCCC(=O)/C=C(O)/C=C/c1ccc(O)c(OC)c1 | 6.53 | > 50 | inactive | inactive | Not Active | > 20 | – | inactive | –
CCCCC/C=C/C(=O)CCc1ccc(O)c(OC)c1 [SHOGAOL] | 18 | > 50 | inactive | inactive | Not Active | – | – | – | –
